# According to PubChem BioAssay (NCI):
#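 Protocol summary: plate cells (96-well), add compound at 5 concentrations, incubate 48 h, interpolate endpoints linearly. Here, GI50 denotes the concentration required for 50% inhibition of growth. TGI marks complete inhibition of growth.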
# How the values were obtained:
# Experiment in all cases: inhibition of tumour cell growth, NCI panel, 48 h
# 786-0 renal = tested on: 786-0 renal
# A498 renal = tested on: A498 renal
# A549 NSCLC = tested on: A549 NSCLC
# ACHN renal = tested on: ACHN renal
# BT-549 breast = tested on: BT-549 breast
# CAKI-1 renal = tested on: CAKI-1 renal
# CCRF-CEM leukemia = tested on: CCRF-CEM leukemia
# COLO 205 colon = tested on: COLO 205 colon
# DU-145 prostate = tested on: DU-145 prostate
# EKVX NSCLC = tested on: EKVX NSCLC
# HCC-2998 colon = tested on: HCC-2998 colon
# HCT-116 colon = tested on: HCT-116 colon
# HCT-15 colon = tested on: HCT-15 colon
# HL-60(TB) leukemia = tested on: HL-60(TB) leukemia
# HOP-62 NSCLC = tested on: HOP-62 NSCLC
# HOP-92 NSCLC = tested on: HOP-92 NSCLC
# HS 578T breast = tested on: HS 578T breast
# HT29 colon = tested on: HT29 colon
# IGROV1 ovarian = tested on: IGROV1 ovarian
# K-562 leukemia = tested on: K-562 leukemia
# KM12 colon = tested on: KM12 colon
# LOX IMVI melanoma = tested on: LOX IMVI melanoma
# M14 melanoma = tested on: M14 melanoma
# MALME-3M melanoma = tested on: MALME-3M melanoma
# MCF7 breast = tested on: MCF7 breast
# MDA-MB-231 breast = tested on: MDA-MB-231 breast
# MDA-MB-435 = tested on: MDA-MB-435
# MDA-MB-468 breast = tested on: MDA-MB-468 breast
# MOLT-4 leukemia = tested on: MOLT-4 leukemia
# NCI-H226 lung = tested on: NCI-H226 lung
# NCI-H23 lung = tested on: NCI-H23 lung
# NCI-H460 lung = tested on: NCI-H460 lung
# NCI-H522 lung = tested on: NCI-H522 lung
# NCI/ADR-RES ovarian = tested on: NCI/ADR-RES ovarian
# OVCAR-3 ovarian = tested on: OVCAR-3 ovarian
# OVCAR-4 ovarian = tested on: OVCAR-4 ovarian
# OVCAR-5 ovarian = tested on: OVCAR-5 ovarian
# OVCAR-8 ovarian = tested on: OVCAR-8 ovarian
# PC-3 prostate = tested on: PC-3 prostate
# RPMI-8226 leukemia = tested on: RPMI-8226 leukemia
# RXF 393 renal = tested on: RXF 393 renal
# SF-268 CNS = tested on: SF-268 CNS
# SF-295 CNS = tested on: SF-295 CNS
# SF-539 CNS = tested on: SF-539 CNS
# SK-MEL-2 melanoma = tested on: SK-MEL-2 melanoma
# SK-MEL-28 melanoma = tested on: SK-MEL-28 melanoma
# SK-MEL-5 melanoma = tested on: SK-MEL-5 melanoma
# SK-OV-3 ovarian = tested on: SK-OV-3 ovarian
# SN12C renal = tested on: SN12C renal
# SNB-19 CNS = tested on: SNB-19 CNS
# SNB-75 CNS = tested on: SNB-75 CNS
# SR leukemia = tested on: SR leukemia
# SW-620 colon = tested on: SW-620 colon
# T-47D breast = tested on: T-47D breast
# TK-10 renal = tested on: TK-10 renal
# U251 CNS = tested on: U251 CNS
# UACC-257 melanoma = tested on: UACC-257 melanoma
# UACC-62 melanoma = tested on: UACC-62 melanoma
# UO-31 renal = tested on: UO-31 renal
compound,measurement,setting,value
C/C(=C\CC/C=C(\C)CC/C=C(\C)CC[C@@H](O)C(C)(C)O)CC/C=C(\C)CC[C@@H](O)C(C)(C)O,GI50,786-0 renal,10.8 µM
same,TGI,786-0 renal,24.1 µM
same,GI50,A498 renal,12.6 µM
same,TGI,A498 renal,25.7 µM
same,GI50,A549 NSCLC,10 µM
same,TGI,A549 NSCLC,30.2 µM
same,GI50,ACHN renal,5.78 µM
same,TGI,ACHN renal,18.3 µM
same,GI50,BT-549 breast,5.14 µM
same,TGI,BT-549 breast,17.4 µM
same,GI50,CAKI-1 renal,12.3 µM
same,TGI,CAKI-1 renal,25.1 µM
same,GI50,CCRF-CEM leukemia,17.9 µM
same,TGI,CCRF-CEM leukemia,39.7 µM
same,GI50,COLO 205 colon,17.8 µM
same,TGI,COLO 205 colon,34.6 µM
same,GI50,DU-145 prostate,15.5 µM
same,TGI,DU-145 prostate,29 µM
same,GI50,EKVX NSCLC,7.68 µM
same,TGI,EKVX NSCLC,20.5 µM
same,GI50,HCC-2998 colon,13.5 µM
same,TGI,HCC-2998 colon,26.4 µM
same,GI50,HCT-116 colon,6.39 µM
same,TGI,HCT-116 colon,21.3 µM
same,GI50,HCT-15 colon,10.9 µM
same,TGI,HCT-15 colon,22.8 µM
same,GI50,HL-60(TB) leukemia,3.1 µM
same,TGI,HL-60(TB) leukemia,11.2 µM
same,GI50,HOP-62 NSCLC,17 µM
same,TGI,HOP-62 NSCLC,34.6 µM
same,GI50,HOP-92 NSCLC,10.2 µM
same,TGI,HOP-92 NSCLC,23.9 µM
same,GI50,HS 578T breast,10.3 µM
same,TGI,HS 578T breast,26.1 µM
same,GI50,HT29 colon,12 µM
same,TGI,HT29 colon,27.4 µM
same,GI50,IGROV1 ovarian,15.4 µM
same,TGI,IGROV1 ovarian,29.2 µM
same,GI50,K-562 leukemia,5.07 µM
same,TGI,K-562 leukemia,> 100 µM
same,GI50,KM12 colon,13.9 µM
same,TGI,KM12 colon,27.3 µM
same,GI50,LOX IMVI melanoma,13.4 µM
same,TGI,LOX IMVI melanoma,26.4 µM
same,GI50,M14 melanoma,10.4 µM
same,TGI,M14 melanoma,23.1 µM
same,GI50,MALME-3M melanoma,12 µM
same,TGI,MALME-3M melanoma,24.5 µM
same,GI50,MCF7 breast,6.7 µM
same,TGI,MCF7 breast,20 µM
same,GI50,MDA-MB-231 breast,13.6 µM
same,TGI,MDA-MB-231 breast,26.5 µM
same,GI50,MDA-MB-435,14.7 µM
same,TGI,MDA-MB-435,28 µM
same,GI50,MDA-MB-468 breast,7.97 µM
same,TGI,MDA-MB-468 breast,21.1 µM
same,GI50,MOLT-4 leukemia,14.4 µM
same,TGI,MOLT-4 leukemia,44.6 µM
same,GI50,NCI-H226 lung,12.6 µM
same,TGI,NCI-H226 lung,27.3 µM
same,GI50,NCI-H23 lung,10.9 µM
same,TGI,NCI-H23 lung,23.2 µM
same,GI50,NCI-H460 lung,11.3 µM
same,TGI,NCI-H460 lung,24.5 µM
same,GI50,NCI-H522 lung,11 µM
same,TGI,NCI-H522 lung,25.9 µM
same,GI50,NCI/ADR-RES ovarian,11.1 µM
same,TGI,NCI/ADR-RES ovarian,23.6 µM
same,GI50,OVCAR-3 ovarian,13.7 µM
same,TGI,OVCAR-3 ovarian,26.7 µM
same,GI50,OVCAR-4 ovarian,11 µM
same,TGI,OVCAR-4 ovarian,23.4 µM
same,GI50,OVCAR-5 ovarian,14.5 µM
same,TGI,OVCAR-5 ovarian,27.8 µM
same,GI50,OVCAR-8 ovarian,15 µM
same,TGI,OVCAR-8 ovarian,34.8 µM
same,GI50,PC-3 prostate,5.16 µM
same,TGI,PC-3 prostate,20.1 µM
same,GI50,RPMI-8226 leukemia,3.74 µM
same,TGI,RPMI-8226 leukemia,18.9 µM
same,GI50,RXF 393 renal,5.93 µM
same,TGI,RXF 393 renal,20.1 µM
same,GI50,SF-268 CNS,13.6 µM
same,TGI,SF-268 CNS,28.3 µM
same,GI50,SF-295 CNS,7.84 µM
same,TGI,SF-295 CNS,20.9 µM
same,GI50,SF-539 CNS,13.1 µM
same,TGI,SF-539 CNS,26.1 µM
same,GI50,SK-MEL-2 melanoma,14.4 µM
same,TGI,SK-MEL-2 melanoma,30 µM
same,GI50,SK-MEL-28 melanoma,12.6 µM
same,TGI,SK-MEL-28 melanoma,25.4 µM
same,GI50,SK-MEL-5 melanoma,5.06 µM
same,TGI,SK-MEL-5 melanoma,17.4 µM
same,GI50,SK-OV-3 ovarian,15.8 µM
same,TGI,SK-OV-3 ovarian,31 µM
same,GI50,SN12C renal,12.6 µM
same,TGI,SN12C renal,25.3 µM
same,GI50,SNB-19 CNS,15 µM
same,TGI,SNB-19 CNS,28.5 µM
same,GI50,SNB-75 CNS,12.5 µM
same,TGI,SNB-75 CNS,25 µM
same,GI50,SR leukemia,18.5 µM
same,TGI,SR leukemia,67.8 µM
same,GI50,SW-620 colon,14.9 µM
same,TGI,SW-620 colon,29.4 µM
same,GI50,T-47D breast,7.75 µM
same,TGI,T-47D breast,25 µM
same,GI50,TK-10 renal,17.6 µM
same,TGI,TK-10 renal,32.5 µM
same,GI50,U251 CNS,13.4 µM
same,TGI,U251 CNS,38.1 µM
same,GI50,UACC-257 melanoma,10.7 µM
same,TGI,UACC-257 melanoma,23.7 µM
same,GI50,UACC-62 melanoma,9.71 µM
same,TGI,UACC-62 melanoma,21.6 µM
same,GI50,UO-31 renal,7.71 µM
same,TGI,UO-31 renal,20.7 µM
